Results as given in patent US12291501B2 (University of Florida Research Foundation, Inc., priority 2021, dated 2025).
Values joined by “and” are separate entries in the source; they are usually repeats but may differ in a detail not shown here. Equal entries are not always repeated.

What was measured:
Assay type in all cases: cell-based
α9 nAChR = molecular target: T1, α9 nAChR (Homo sapiens, UniProt Q9UGM1); test: Two-electrode voltage-clamp, agonist concentration-response, α9 nAChR in Xenopus oocytes; conditions: for EC50 / α9 Imax: peak currents, ± standard error of fit; for α9 Imax: relative to ACh (Imax = 1)
T1 construct: expressed in transfected cells; host or cells: Xenopus laevis oocytes, injected with in vitro transcribed RNA
From the text: (§1) Electrophysiology: Xenopus oocytes were microinjected with RNAs to produce functional nAChR which were characterized by two-electrode voltage-clamp measurements. FIGS. 5A-7D present concentration-response curves for the new compounds evaluated with α7, α9, and α9α10 receptors. Table 1 presents the values for Imax and EC50 with these receptors and Table 2 summarizes inhibition data for the compounds with heteromeric nAChR.
(§2) Molecular Biology: Plasmid DNAs encoding the human α7 and heteromeric nAChR were obtained from Jon Lindstrom (University of Pennsylvania, Philadelphia, PA). Mouse muscle subunit clones were obtained from Jim Boulter (Salk Institute, La Jolla CA) and Paul Gardner (Dartmouth, Hanover NH). The human resistance-to-cholinesterase 3 ([…]) clone was obtained from Millet Treinin (Hebrew University, Jerusalem, Israel) and RNA co-injected with α7 to improve the level and speed of receptor expression without affecting their pharmacological properties. Plasmid DNA encoding the human α10 nAChR was obtained from J. Michael McIntosh. Plasmid DNA encoding the human α9 nAChR and the human receptor-associated protein of the synapse (RAPSYN) with codon optimization for expression in Xenopus laevis were obtained from Katrin Richter. RAPSYN RNA was co-injected with the α9 and α10 to improve expression (Richter et al., (2022) Front. Cell Neurosci. 16: 779081). After linearization and purification of the plasmid DNAs, RNAs were prepared using the mMessage mMachine in vitro RNA transcription kit (Ambion, Austin, TX). Frogs were maintained in the Animal Care Service facility of the University of Florida, and all procedures were approved by the University of Florida Institutional Animal Care and Use Committee (approval number 202002669). In brief, the animals were first anesthetized for 15-20 min in 1.5 l frog tank water containing 1 g of MS-222 buffered with sodium bicarbonate. Oocytes were obtained surgically from mature female Xenopus laevis (Nasco, Ft. Atkinson WI, USA) and treated with 1.4 mg/ml type 1 collagenase (Worthington Biochemicals, Freehold NJ, USA) for 2-4 h at rt in Ca2+-free Barth's solution (88 mM NaCl, 1 mM KCl, 2.38 mM NaHCO3, 0.82 mM MgSO4, 15 mM HEPES, and 12 mg/l tetracycline, pH 7.6) to remove the ovarian tissue and the follicular layers. Stage V oocytes were injected with 4-6 ng CHRNA7 RNA and 2-3 ng RIC3 RNA (2:1 ratio) in 50 nl water, or with 12 ng CHRNA9 RNA and 3 ng RAPSN RNA, or along with 12 ng CHRNA10 RNA in 50 nl water. Oocytes were maintained in Barth's solution containing 0.32 mM Ca(NO3)2 and 0.41 mM CaCl2, and recordings were conducted 2-20 days after injection.
(§3) Electrophysiology: Two-electrode voltage-clamp experiments were conducted using OpusXpress 6000A (Molecular Devices, Union City CA, USA). Both the voltage and current electrodes were filled with 3 M KCl. Oocytes were voltage-clamped at −60 mV at rt. The oocytes were perfused with Ringer's solution (115 mM NaCl, 2.5 mM KCl, 1.8 mM CaCl2, 10 mM HEPES, 1 μM atropine, pH 7.2) at 2 ml/min. […] Drug applications were 12 s in duration followed by 181 s washout periods.
(§4) The responses were calculated as both peak-current amplitudes and net charge. Data were collected at 50 Hz, filtered at 20 Hz, and analyzed by Clampfit (Molecular Devices) and Excel (Microsoft, Redmond, WA, United States). Data are expressed as means±SEM from at least five oocytes for each experiment and plotted with Kaleidagraph 4.5.2 (Abelbeck Software, Reading, PA, United States). Each episode of data acquisition was a total of 210 s and included an initial 30 s period used to define the baseline for the drug-evoked responses. After 30 s, drugs were applied, and the following 120 s were defined as the drug response period for analysis. […] The values for the curve fits were generated using the Levenberg-Marquardt algorithm to obtain the best Chi-Square fit to the Hill equation using the Kaleidagraph 4.5.2 plotting program. […]

α9α10 nAChR = molecular target: T2, α9α10 nAChR (Homo sapiens, UniProt Q9GZZ6+Q9UGM1); test: Two-electrode voltage-clamp, agonist concentration-response, α9α10 nAChR in Xenopus oocytes; conditions: for EC50 / α9α10 Imax: peak currents, ± standard error of fit; for α9α10 Imax: relative to ACh (Imax = 1)
T2 construct: expressed in transfected cells; host or cells: Xenopus laevis oocytes, injected with in vitro transcribed RNA
From the text: as §1, §2, §3, §4

α1β1εδ nAChR = molecular target: T3, α1β1εδ nAChR (Mus musculus, UniProt P02716+P04756+P09690+P20782); test: Inhibition of control ACh responses by co-application, muscle α1β1εδ nAChR in oocytes; conditions: 3 μM compound co-applied with ACh; fraction of control ACh response
T3 construct: expressed in transfected cells; host or cells: Xenopus laevis oocytes
Protocol: (§5) Initial profiling against heteromeric receptors: The test compounds for their ability to activate or inhibit other nAChR subtypes were evaluated. Agonist activity was evaluated by applying the compounds at 100 or 30 μM to human α4β2 and α3β4 as well as to mouse muscle α1β1εδ nAChR expressed in Xenopus oocytes. […] The inhibitory activity was generally low (Table 3).
as §2, §3
(§6) The responses were calculated as both peak-current amplitudes and net charge. Data were collected at 50 Hz, filtered at 20 Hz, and analyzed by Clampfit (Molecular Devices) and Excel (Microsoft, Redmond, WA, United States). Data are expressed as means±SEM from at least five oocytes for each experiment and plotted with Kaleidagraph 4.5.2 (Abelbeck Software, Reading, PA, United States). Each episode of data acquisition was a total of 210 s and included an initial 30 s period used to define the baseline for the drug-evoked responses. After 30 s, drugs were applied, and the following 120 s were defined as the drug response period for analysis. […] The values for the curve fits were generated using the Levenberg-Marquardt algorithm to obtain the best Chi-Square fit to the Hill equation using the Kaleidagraph 4.5.2 plotting program. The errors in the tables are the calculated standard errors of the fit parameters based on the goodness of fit.

α7 nAChR [1] = molecular target: T4, α7 nAChR (Homo sapiens, UniProt P36544); test: Two-electrode voltage-clamp, agonist concentration-response, α7 nAChR in Xenopus oocytes; conditions: for EC50 / α7 Imax: net charge, ± standard error of fit; for α7 Imax: relative to ACh (Imax = 1)
T4 construct: expressed in transfected cells; host or cells: Xenopus laevis oocytes, injected with in vitro transcribed RNA
From the text: as §1
(§7) Molecular Biology: Plasmid DNAs encoding the human α7 and heteromeric nAChR were obtained from Jon Lindstrom (University of Pennsylvania, Philadelphia, PA). Mouse muscle subunit clones were obtained from Jim Boulter (Salk Institute, La Jolla CA) and Paul Gardner (Dartmouth, Hanover NH). […] Plasmid DNA encoding the human α10 nAChR was obtained from J. Michael McIntosh. Plasmid DNA encoding the human α9 nAChR and the human receptor-associated protein of the synapse (RAPSYN) with codon optimization for expression in Xenopus laevis were obtained from Katrin Richter. […] After linearization and purification of the plasmid DNAs, RNAs were prepared using the mMessage mMachine in vitro RNA transcription kit (Ambion, Austin, TX). […] Oocytes were maintained in Barth's solution containing 0.32 mM Ca(NO3)2 and 0.41 mM CaCl2, and recordings were conducted 2-20 days after injection.
(§8) Electrophysiology: Two-electrode voltage-clamp experiments were conducted using OpusXpress 6000A (Molecular Devices, Union City CA, USA). Both the voltage and current electrodes were filled with 3 M KCl. Oocytes were voltage-clamped at −60 mV at rt.
as §6

α3β4 nAChR = molecular target: T5, α3β4 nAChR (Homo sapiens, UniProt P30926+P32297); test: Inhibition of control ACh responses by co-application, α3β4 nAChR in oocytes; conditions: 3 μM compound co-applied with ACh; fraction of control ACh response
T5 construct: expressed in transfected cells; host or cells: Xenopus laevis oocytes
Protocol: as §5, §2, §3, §6

α7 nAChR [2] = molecular target: T4, α7 nAChR; test: α7 responses to drugs co-applied with the PAM PNU-120596 (silent agonism); conditions: drug 30 μM + 10 μM PNU-120596; normalized to 30 μM ACh + 10 μM PNU-120596
From the text: as §7, §8, §6

α4β2 nAChR = molecular target: T6, α4β2 nAChR (Homo sapiens, UniProt P17787+P43681); test: Inhibition of control ACh responses by co-application, α4β2 nAChR in oocytes; conditions: 3 μM compound co-applied with ACh; fraction of control ACh response
T6 construct: expressed in transfected cells; host or cells: Xenopus laevis oocytes
Protocol: as §5, §2, §3, §6

[3] = 3e vs larger ammonium analogs, 3h relative to 3g

T2 sequence (Q9UGM1 26-479 limits assumed): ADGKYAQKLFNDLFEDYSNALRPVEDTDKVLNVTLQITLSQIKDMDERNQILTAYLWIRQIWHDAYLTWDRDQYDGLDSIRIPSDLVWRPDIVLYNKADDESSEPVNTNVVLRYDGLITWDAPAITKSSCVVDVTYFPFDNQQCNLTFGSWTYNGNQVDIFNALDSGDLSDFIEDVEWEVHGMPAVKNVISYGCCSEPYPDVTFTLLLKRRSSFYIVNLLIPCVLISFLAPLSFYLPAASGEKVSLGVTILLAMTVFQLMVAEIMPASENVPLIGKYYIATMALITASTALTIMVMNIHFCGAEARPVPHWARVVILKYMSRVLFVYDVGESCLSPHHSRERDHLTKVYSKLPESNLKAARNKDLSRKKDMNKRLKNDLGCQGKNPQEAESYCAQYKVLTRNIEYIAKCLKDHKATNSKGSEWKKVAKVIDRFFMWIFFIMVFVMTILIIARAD
T2 sequence (Q9GZZ6 25-450): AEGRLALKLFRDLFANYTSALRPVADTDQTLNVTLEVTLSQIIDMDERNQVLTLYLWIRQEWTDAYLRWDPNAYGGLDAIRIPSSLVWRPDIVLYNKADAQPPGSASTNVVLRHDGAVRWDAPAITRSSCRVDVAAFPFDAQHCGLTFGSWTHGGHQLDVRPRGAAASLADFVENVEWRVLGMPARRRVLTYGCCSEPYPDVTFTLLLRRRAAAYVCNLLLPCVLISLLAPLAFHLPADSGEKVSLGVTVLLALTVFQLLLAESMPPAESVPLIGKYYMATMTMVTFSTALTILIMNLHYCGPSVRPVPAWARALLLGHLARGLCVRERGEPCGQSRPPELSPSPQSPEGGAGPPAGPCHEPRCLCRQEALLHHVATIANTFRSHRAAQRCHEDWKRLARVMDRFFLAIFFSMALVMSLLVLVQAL
T1 sequence (Q9UGM1 26-479 limits assumed): as the sequence (Q9UGM1 26-479 limits assumed) above
T3 sequence (P04756 21-457): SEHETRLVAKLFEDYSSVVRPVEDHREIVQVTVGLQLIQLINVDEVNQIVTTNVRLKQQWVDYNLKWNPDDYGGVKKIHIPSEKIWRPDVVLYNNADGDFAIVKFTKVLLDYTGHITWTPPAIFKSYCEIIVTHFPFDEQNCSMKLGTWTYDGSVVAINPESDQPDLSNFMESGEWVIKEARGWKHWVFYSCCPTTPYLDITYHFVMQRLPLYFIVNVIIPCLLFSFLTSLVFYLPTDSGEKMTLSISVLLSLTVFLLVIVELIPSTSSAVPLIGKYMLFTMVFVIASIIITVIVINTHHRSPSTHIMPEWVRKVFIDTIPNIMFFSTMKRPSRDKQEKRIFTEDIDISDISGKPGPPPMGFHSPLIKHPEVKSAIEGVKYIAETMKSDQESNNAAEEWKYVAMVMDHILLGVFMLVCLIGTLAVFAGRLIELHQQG
T3 sequence (P09690 24-501): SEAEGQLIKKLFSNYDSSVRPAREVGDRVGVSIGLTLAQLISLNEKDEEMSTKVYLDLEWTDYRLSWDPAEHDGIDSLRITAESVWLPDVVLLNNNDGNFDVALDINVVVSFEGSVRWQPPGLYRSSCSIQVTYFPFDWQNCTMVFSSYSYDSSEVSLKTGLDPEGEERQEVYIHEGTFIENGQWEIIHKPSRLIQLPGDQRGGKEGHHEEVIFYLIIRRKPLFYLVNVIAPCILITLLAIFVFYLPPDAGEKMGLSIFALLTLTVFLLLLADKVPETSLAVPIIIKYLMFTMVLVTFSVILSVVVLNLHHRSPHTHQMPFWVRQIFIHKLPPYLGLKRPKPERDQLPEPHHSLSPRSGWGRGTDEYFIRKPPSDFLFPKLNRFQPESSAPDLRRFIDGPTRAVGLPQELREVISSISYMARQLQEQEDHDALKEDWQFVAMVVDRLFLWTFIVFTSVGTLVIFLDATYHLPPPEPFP
T3 sequence (P20782 21-493): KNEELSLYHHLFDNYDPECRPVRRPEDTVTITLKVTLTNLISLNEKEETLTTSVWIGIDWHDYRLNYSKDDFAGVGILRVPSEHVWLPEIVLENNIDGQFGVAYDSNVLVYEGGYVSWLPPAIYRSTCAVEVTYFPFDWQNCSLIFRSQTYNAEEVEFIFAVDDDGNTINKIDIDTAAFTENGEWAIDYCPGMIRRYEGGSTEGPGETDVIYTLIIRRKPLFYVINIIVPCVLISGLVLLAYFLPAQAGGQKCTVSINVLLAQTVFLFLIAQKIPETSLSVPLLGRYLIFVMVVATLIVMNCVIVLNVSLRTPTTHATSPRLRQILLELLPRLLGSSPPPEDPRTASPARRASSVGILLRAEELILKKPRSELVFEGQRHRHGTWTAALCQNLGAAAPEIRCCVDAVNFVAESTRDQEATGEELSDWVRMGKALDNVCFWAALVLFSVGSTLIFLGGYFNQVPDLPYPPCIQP
T3 sequence (P02716 25-520): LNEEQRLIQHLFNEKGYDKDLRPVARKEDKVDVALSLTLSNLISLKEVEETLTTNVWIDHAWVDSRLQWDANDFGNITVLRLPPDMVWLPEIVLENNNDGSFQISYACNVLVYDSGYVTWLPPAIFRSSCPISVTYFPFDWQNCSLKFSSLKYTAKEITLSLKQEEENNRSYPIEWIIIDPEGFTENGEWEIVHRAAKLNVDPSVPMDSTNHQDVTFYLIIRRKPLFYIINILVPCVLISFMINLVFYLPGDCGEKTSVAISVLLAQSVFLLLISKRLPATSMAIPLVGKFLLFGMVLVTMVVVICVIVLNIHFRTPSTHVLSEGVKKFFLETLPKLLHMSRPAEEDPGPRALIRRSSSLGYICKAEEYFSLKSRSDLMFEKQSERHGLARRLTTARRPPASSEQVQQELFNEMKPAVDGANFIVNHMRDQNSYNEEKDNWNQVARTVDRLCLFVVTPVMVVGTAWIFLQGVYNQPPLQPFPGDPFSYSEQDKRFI
T4 sequence (P36544 23-502): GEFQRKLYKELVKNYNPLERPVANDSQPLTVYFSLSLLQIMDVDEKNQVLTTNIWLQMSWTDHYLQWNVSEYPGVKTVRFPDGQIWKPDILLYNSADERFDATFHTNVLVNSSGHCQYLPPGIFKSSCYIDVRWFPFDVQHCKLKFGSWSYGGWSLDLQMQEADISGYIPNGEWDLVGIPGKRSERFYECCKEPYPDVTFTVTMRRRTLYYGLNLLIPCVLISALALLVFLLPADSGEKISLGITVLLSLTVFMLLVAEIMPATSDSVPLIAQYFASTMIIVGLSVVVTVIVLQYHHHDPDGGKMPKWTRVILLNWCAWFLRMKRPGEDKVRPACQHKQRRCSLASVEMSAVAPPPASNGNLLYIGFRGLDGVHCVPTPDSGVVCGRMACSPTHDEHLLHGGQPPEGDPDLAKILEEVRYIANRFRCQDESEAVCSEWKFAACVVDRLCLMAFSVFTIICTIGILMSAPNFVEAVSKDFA
T6 sequence (P43681 29-627 limits assumed): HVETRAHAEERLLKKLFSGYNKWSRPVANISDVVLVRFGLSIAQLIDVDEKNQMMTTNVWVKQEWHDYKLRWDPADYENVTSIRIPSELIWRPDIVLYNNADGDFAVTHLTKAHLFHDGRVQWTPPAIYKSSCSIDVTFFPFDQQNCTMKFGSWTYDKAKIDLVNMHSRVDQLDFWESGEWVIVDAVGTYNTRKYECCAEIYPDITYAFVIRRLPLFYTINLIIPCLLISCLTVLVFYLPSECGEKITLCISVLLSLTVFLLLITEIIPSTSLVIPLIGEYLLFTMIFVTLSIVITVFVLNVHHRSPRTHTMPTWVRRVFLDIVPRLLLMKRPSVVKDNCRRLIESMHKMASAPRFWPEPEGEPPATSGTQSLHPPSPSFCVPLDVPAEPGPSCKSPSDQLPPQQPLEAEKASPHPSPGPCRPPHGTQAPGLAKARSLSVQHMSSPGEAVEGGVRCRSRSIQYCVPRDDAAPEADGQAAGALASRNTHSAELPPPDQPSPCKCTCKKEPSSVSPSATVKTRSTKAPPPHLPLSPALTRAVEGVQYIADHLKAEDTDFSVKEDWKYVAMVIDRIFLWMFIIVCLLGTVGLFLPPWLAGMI
T6 sequence (P17787 26-502): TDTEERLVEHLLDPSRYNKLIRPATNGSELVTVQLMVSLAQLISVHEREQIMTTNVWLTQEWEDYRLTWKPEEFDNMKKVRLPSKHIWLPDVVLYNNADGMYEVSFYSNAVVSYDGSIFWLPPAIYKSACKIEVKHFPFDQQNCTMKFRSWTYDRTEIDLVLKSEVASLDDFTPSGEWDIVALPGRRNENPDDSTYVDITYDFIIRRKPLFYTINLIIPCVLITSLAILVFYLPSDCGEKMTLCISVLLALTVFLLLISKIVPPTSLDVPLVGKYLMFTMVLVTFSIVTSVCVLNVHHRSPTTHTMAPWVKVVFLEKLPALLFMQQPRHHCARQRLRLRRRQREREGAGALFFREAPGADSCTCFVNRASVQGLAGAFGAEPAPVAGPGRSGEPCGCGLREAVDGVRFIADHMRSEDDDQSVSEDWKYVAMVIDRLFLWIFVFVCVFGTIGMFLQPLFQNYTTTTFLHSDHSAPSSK

Structure (SMILES) | EC50 (α9 nAChR) [µM] | α9 Imax (α9 nAChR) | EC50 (α9α10 nAChR) [µM] | α9α10 Imax (α9α10 nAChR) | Effect of co-application on the control ACh responses, α1β1εδ (α1β1εδ nAChR) | EC50 (α7 nAChR [1]) [µM] | α7 Imax (α7 nAChR [1]) | Effect of co-application on the control ACh responses, α3β4 (α3β4 nAChR) | Response co-applied with PNU-120596, normalized to ACh co-applied with PNU-120596 (α7 nAChR [2]) | Effect of co-application on the control ACh responses, α4β2 (α4β2 nAChR) | Agonist character / efficacy at α9 (α9 nAChR) | Agonist character / efficacy at α7 (α7 nAChR [1]) | Fold loss of potency at α9 relative to comparator compound (α9 nAChR; [3]) | Agonist character / efficacy at α9α10 (α9α10 nAChR) | Fold loss of potency at α9α10 relative to comparator compound (α9α10 nAChR; [3]) | Fold greater potency for α9 than for α7 (α9 nAChR; ratio of EC50 values) [fold]
CCCNC(=O)c1ccc(N2CC[N+](CC)(CC)CC2)cc1.[I-] [Compound 3b, 1,1-diethyl-4-(4-(propylcarbamoyl)phenyl)piperazin-1-ium iodide] | 9 ± 6 | 1.13 ± 0.15 | 11 ± 6 | 0.79 ± 0.13 | 0.709 ± 0.086 | 280 ± 240 | 0.38 ± 0.09 and 0.38 | 0.650 ± 0.039 | 0.19 | 0.946 ± 0.032 | – | – | – | – | – | –
CC[N+]1(CC)CCN(c2ccc(C(=O)N3CCCC3)cc2)CC1.[I-] [Compound 3a, 1,1-diethyl-4-(4-(pyrrolidine-1-carbonyl)phenyl)piperazin-1-ium iodide] | 45 ± 22 | 0.69 ± 0.09 | 15 ± 3.1 | 0.56 ± 0.04 | 0.541 ± 0.048 | 500 ± 500 | 0.06 ± 0.11 and 0.06 | 0.849 ± 0.034 | 0.01 | 0.919 ± 0.022 | moderate efficacy | lost agonism | – | – | – | –
Cc1cccc(NC(=O)c2ccc(N3CC[N+](C)(C)CC3)cc2)n1.[I-] [Compound 3e, 1,1-dimethyl-4-(4-((6-methylpyridin-2-yl)carbamoyl)phenyl)piperazin-1-ium iodide] | 7 ± 6 | 0.51 ± 0.07 | 4.2 ± 1.5 | 0.89 ± 0.07 | 0.709 ± 0.091 | 4.3 ± 1 | 0.57 ± 0.03 and 0.57 | 0.838 ± 0.037 | 0.16 | 0.912 ± 0.038 | partial agonist | – | about 10 fold | fully efficacious agonist | about 10 fold | –
CC[N+]1(CC)CCN(c2ccc(C(=O)Nc3cccc(C)c3)cc2)CC1.[I-] [Compound 3d, 1,1-diethyl-4-(4-(m-tolylcarbamoyl)phenyl)piperazin-1-ium iodide] | 1.28 ± 0.62 | 1.25 ± 0.14 | 0.61 ± 0.08 | 1.12 ± 0.03 | 0.555 ± 0.060 | 1.3 ± 0.1 | 0.60 ± 0.02 and 0.6 | 1.039 ± 0.015 | 0.17 | 0.807 ± 0.048 | – | partial agonists | – | – | – | –
CC[N+]1(CC)CCN(c2ccc(C(N)=O)cc2)CC1 [Compound 1, 4-(4-carbamoylphenyI)-1,1-diethylpiperazin-1-ium iodide, reference compound] | 1.15 ± 0.24 | 0.80 ± 0.03 | 13 ± 11 | 1.19 ± 0.25 | – | 76 ± 2 | 0.34 ± 0.01 and 0.34 | – | 0.18 | – | full α9 agonist | – | – | – | – | 66
